The source of these data is patent publication US7452876B2, “Cyclopropyl fused indolobenzazepine HCV NS5B inhibitors” (Bristol-Myers Squibb Company, priority 2006, dated 2008).

The target of test [1] is T1, HCV NS5B RdRp genotype 1b (Hepatitis C virus genotype 1b, UniProt Q9WMX2).
T1 construct: The protein was expressed with an 18 amino acid C-terminal truncation to enhance the solubility; made in house; host or cells: E. coli BL21 (DE3), pET21a
As to the kind of experiment: Modified HCV NS5B RdRp enzyme assay (preincubation protocol). In kind it is biochemical. The protocol:
HCV NS5B RdRp cloning, expression, and purification. The cDNA encoding the NS5B protein of HCV, genotype 1b, was cloned into the pET21a expression vector. The protein was expressed with an 18 amino acid C-terminal truncation to enhance the solubility. The E. coli competent cell line BL21 (DE3) was used for expression of the protein. Cultures were grown at 37° C. for ˜4 hours until the cultures reached an optical density of 2.0 at 600 nm. The cultures were cooled to 20° C. and induced with 1 mM IPTG. Fresh ampicillin was added to a final concentration of 50 μg/ml and the cells were grown overnight at 20° C.
Cell pellets (3L) were lysed for purification to yield 15-24 mgs of purified NS5B. The lysis buffer consisted of 20 mM Tris-HCl, pH 7.4, 500 mM NaCl, 0.5% triton X-100, 1 mM DTT, 1 mM EDTA, 20% glycerol, 0.5 mg/ml lysozyme, 10 mM MgCl2, 15 ug/ml deoxyribonuclease I, and Complete TM protease inhibitor tablets (Roche). After addition of the lysis buffer, frozen cell pellets were resuspended using a tissue homogenizer. To reduce the viscosity of the sample, aliquots of the lysate were sonicated on ice using a microtip attached to a Branson sonicator. The sonicated lysate was centrifuged at 100,000×g for 1 hr at 4° C. and filtered through a 0.2 μm filter unit (Corning).
The protein was purified using three sequential chromatography steps: Heparin sepharose CL-6B, polyU sepharose 4B, and Hitrap SP sepharose (Pharmacia). The chromatography buffers were identical to the lysis buffer but contained no lysozyme, deoxyribonuclease I, MgCl2 or protease inhibitor and the NaCl concentration of the buffer was adjusted according to the requirements for charging the protein onto the column. Each column was eluted with a NaCl gradient which varied in length from 5-50 column volumes depending on the column type. After the final chromatography step, the resulting purity of the enzyme is >90% based on SDS-PAGE analysis. The enzyme was aliquoted and stored at −80° C.
Standard HCVNS5B RdRp enzyme assay. HCV RdRp genotype 1b assays were run in a final volume of 60 μl in 96 well plates (Costar 3912). The assay buffer is composed of 20 mM Hepes, pH 7.5, 2.5 mM KCl, 2.5 mM MgCl2, 1 mM DTT, 1.6 U RNAse inhibitor (Promega N2515), 0.1 mg/ml BSA (Promega R3961), and 2% glycerol. All compounds were serially diluted (3-fold) in DMSO and diluted further in water such that the final concentration of DMSO in the assay was 2%. HCV RdRp genotype 1b enzyme was used at a final concentration of 28 nM. A polyA template was used at 6 nM, and a biotinylated oligo-dT 12 primer was used at 180 nM final concentration. Template was obtained commercially (Amersham 27-4110). Biotinylated primer was prepared by Sigma Genosys. 3H-UTP was used at 0.6 μCi (0.29 μM total UTP). Reactions were initiated by the addition of enzyme, incubated at 30° C. for 60 min, and stopped by adding 25 μl of 50 mM EDTA containing SPA beads (4 μg/μl, Amersham RPNQ 0007). Plates were read on a Packard Top Count NXT after >1 hr incubation at room temperature.
Modified HCVNS5B RdRp enzyme assay. A modified enzyme assay was performed essentially as described for the standard enzyme assay except for the following: The biotinylated oligo dT12 primer was precaptured on streptavidin-coated SPA beads by mixing primer and beads in assay buffer and incubating at room temperature for one hour. Unbound primer was removed after centrifugation. The primer-bound beads were resuspended in 20 mM Hepes buffer, pH 7.5 and used in the assay at final concentrations of 20 nM primer and 0.67 μg/μl beads. Order of addition in the assay: enzyme (14 nM) was added to diluted compound followed by the addition of a mixture of template (0.2 nM), 3H-UTP (0.6 μCi, 0.29 μM), and primer-bound beads, to initiate the reaction; concentrations given are final. Reactions were allowed to proceed for 4 hours at 30° C.
IC50 values for compounds were determined using seven different [I]. […]

Test [2] deals with HCV replicon cells. As to the kind of experiment: HCV replicon FRET assay. In kind it is cell-based. Particulars: Hepatitis C virus. The source says: FRET Assay Preparation. To perform the HCV FRET screening assay, 96-well cell culture plates were used. The FRET peptide (Anaspec, Inc.) (Taliani et al., Anal. Biochem. 1996, 240, 60-67) contains a fluorescence donor, EDANS, near one end of the peptide and an acceptor, DABCYL, near the other end. The fluorescence of the peptide is quenched by […] resonance energy transfer (RET) between the donor and the acceptor, but as the NS3 protease cleaves the peptide the products are released from RET quenching and the fluorescence of the donor becomes apparent. The assay reagent was made as follows: 5× cell Luciferase cell culture lysis reagent from Promega (#E153A) diluted to 1× with dH2O, NaCl added to 150 mM final, the FRET peptide diluted to 20 uM final from a 2 mM stock.
To prepare plates, HCV replicon cells, with or without a Renilla luciferase reporter gene, were trypsinized and placed into each well of a 96-well plate with titrated test compounds added in columns 3 through 12; columns 1 and 2 contained a control compound (HCV protease inhibitor), and the bottom row contained cells without compound. The plates were then placed in a CO2 incubator at 37° C.
Assays. Subsequent to addition of the test compounds described above (FRET Assay Preparation), at various times the plate was removed and Alamar blue solution (Trek Diagnostics, #00-100) was added per well as a measure of cellular toxicity. After reading in a Cytoflour 4000 instrument (PE Biosystems), plates were rinsed with PBS and then used for FRET assay by the addition of 30 ul of the FRET peptide assay reagent described above (FRET Assay Preparation) per well. The plate was then placed into the Cytoflour 4000 instrument which had been set to 340 excite/490 emission, automatic mode for 20 cycles and the plate read in a kinetic mode. Typically, the signal to noise using an endpoint analysis after the reads was at least three-fold. Alternatively, after Alamar blue reading, plates were rinsed with PBS, 50 ul of DMEM (high glucose) without phenol red was added and plates were then used for luciferase assay using the Promega Dual-Glo Luciferase Assay System.
Compound analysis was determined by quantification of the relative HCV replicon inhibition and the relative cytotoxicity values. To calculate cytoxicity values, the average Alamar Blue fluorescence signals from the control wells were set as 100% non-toxic. The individual signals in each of the compound test wells were then divided by the average control signal and multiplied by 100% to determine […]. To calculate the HCV replicon inhibition values, an average background value was obtained from the two wells containing the highest amount of HCV protease inhibitor at the end of the assay period. These numbers were similar to those obtained from naïve Huh-7 cells.
The background numbers were then subtracted from the average signal obtained from the control wells and this number was used as 100% activity. The individual signals in each of the compound test wells were then divided by the averaged control values after background subtraction and multiplied by 100% to determine percent activity. EC50 values for a protease inhibitor titration were calculated as the concentration which caused a 50% reduction in FRET or luciferase activity. The two numbers generated for the compound plate, percent cytoxicity and percent activity were used to determine compounds of interest for further analysis.

T1 sequence (Q9WMX2 2420-2992): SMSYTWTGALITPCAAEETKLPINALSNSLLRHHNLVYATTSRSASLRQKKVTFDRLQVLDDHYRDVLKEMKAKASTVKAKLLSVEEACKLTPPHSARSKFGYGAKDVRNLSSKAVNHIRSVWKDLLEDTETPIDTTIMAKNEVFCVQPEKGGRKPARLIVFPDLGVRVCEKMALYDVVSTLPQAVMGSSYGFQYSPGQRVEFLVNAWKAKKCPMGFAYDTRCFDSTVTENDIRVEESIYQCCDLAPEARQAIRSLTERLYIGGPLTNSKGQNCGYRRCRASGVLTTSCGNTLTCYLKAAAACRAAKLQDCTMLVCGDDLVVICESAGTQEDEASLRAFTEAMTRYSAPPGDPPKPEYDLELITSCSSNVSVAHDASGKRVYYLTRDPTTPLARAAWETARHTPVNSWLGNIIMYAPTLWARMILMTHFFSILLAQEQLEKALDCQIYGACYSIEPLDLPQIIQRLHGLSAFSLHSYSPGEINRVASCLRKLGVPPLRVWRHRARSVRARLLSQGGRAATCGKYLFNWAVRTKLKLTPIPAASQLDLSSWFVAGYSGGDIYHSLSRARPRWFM

In turn, `COc1ccc2c(c1)C1CC1(NC(=O)N1C[C@@H](C)O[C@@H](C)C1)Cn1c-2c(C2CCCCC2)c2ccc(C(=O)NS(=O)(=O)N(C)C)cc21` (stereo partly shown) had an IC50 in test [1] of 20 to 1000 nM. The same molecule displayed an EC50 in test [2] of 70 to 1000 nM.

Consider `O=C(O)c1ccc2c(C3CCCCC3)c3n(c2c1)CC1(NC(=O)N2CCOCC2)CC1c1ccccc1-3` (stereo not shown), for which the IC50 in test [1] was in the range of 20 to 1000 nM. The same molecule returned an EC50 in test [2] of 70 to 1000 nM.

In test [1], `COc1ccc2c(c1)C1CC1(NC(=O)N1CCOCC1)Cn1c-2c(C2CCCCC2)c2ccc(C(=O)O)cc21` (stereo not shown) had an IC50 of 20 to 1000 nM. The EC50 in test [2] lay within 70 to 1000 nM.

Molecule `COC(=O)c1ccc2c(C3CCCCC3)c3n(c2c1)CC1(NC(=O)N2CCOCC2)CC1c1ccccc1-3` (stereo not shown) yielded an IC50 in test [1] of 20 to 1000 nM.

In turn, `COC(=O)c1ccc2c(C3CCCCC3)c3n(c2c1)CC1(NC(=O)N2CCOCC2)CC1c1cc(OC)ccc1-3` (stereo not shown) returned a half-maximal inhibitory concentration (IC50) in test [1] of 20 to 1000 nM.

Molecule `COc1ccc2c(c1)C1CC1(NC(=O)N1CC(OC)C1)Cn1c-2c(C2CCCCC2)c2ccc(C(=O)NS(=O)(=O)N(C)C)cc21` (stereo not shown) displayed an IC50 in test [1] of 20 to 1000 nM. The same molecule displayed an EC50 in test [2] of 20 to 1000 nM.

With `COc1ccc2c(c1)C1CC1(NC(=O)OC(C)(C)C)Cn1c-2c(C2CCCCC2)c2ccc(C(=O)NS(=O)(=O)N(C)C)cc21` (stereo not shown), in test [1], the IC50 is 20 to 1000 nM. The EC50 in test [2] lay in the range of 20 to 1000 nM.

`COc1ccc2c(c1)C1CC1(NC(=O)N(C)CC1CCOCC1)Cn1c-2c(C2CCCCC2)c2ccc(C(=O)NS(=O)(=O)N(C)C)cc21` (stereo not shown) gave an IC50 in test [1] of 20 to 1000 nM. Also, the EC50 in test [2] lay in the range of 20 to 1000 nM.

`COc1ccc2c(c1)C1CC1(NC(=O)N(C)CCN(C)C)Cn1c-2c(C2CCCCC2)c2ccc(C(=O)NS(=O)(=O)N(C)C)cc21` (stereo not shown) displayed an IC50 in test [1] of 20 to 1000 nM. In test [2], this molecule had an EC50 of 20 to 1000 nM.

Consider `COc1ccc2c(c1)C1CC1(N)Cn1c-2c(C2CCCCC2)c2ccc(C(=O)NS(=O)(=O)N(C)C)cc21` (stereo not shown), for which the IC50 in test [1] fell in the range of 20 to 1000 nM. The same molecule had an EC50 in test [2] of 20 to 1000 nM.

Turning to `COc1ccc2c(c1)[C@@H]1C[C@]1(NC(=O)OC(C)(C)C)Cn1c-2c(C2CCCCC2)c2ccc(C(=O)NS(=O)(=O)N(C)C)cc21`, the IC50 in test [1] was 20 to 1000 nM. The half-maximal effective concentration (EC50) in test [2] is 20 to 1000 nM.

In test [1], `COc1ccc2c(c1)[C@@H]1C[C@]1(N)Cn1c-2c(C2CCCCC2)c2ccc(C(=O)NS(=O)(=O)N(C)C)cc21` displayed an IC50 of 20 to 1000 nM. For the same molecule, the EC50 in test [2] lay in the range of 20 to 1000 nM.

Turning to `COCCNC(=O)CN(C)C(=O)NC12CC1c1cc(OC)ccc1-c1c(C3CCCCC3)c3ccc(C(=O)NS(=O)(=O)N(C)C)cc3n1C2` (stereo not shown), the IC50 in test [1] fell in the range of 20 to 1000 nM. The same molecule gave an EC50 in test [2] of 20 to 1000 nM.

Take `COc1ccc2c(c1)C1CC1(NC(=O)N(C)CC(N)=O)Cn1c-2c(C2CCCCC2)c2ccc(C(=O)NS(=O)(=O)N(C)C)cc21` (stereo not shown): the IC50 in test [1] lay within 20 to 1000 nM. For the same molecule, the EC50 in test [2] fell in the range of 20 to 1000 nM.

Regarding `COc1ccc2c(c1)C1CC1(NC(=O)N(C)CC(=O)N1CCN(C)CC1)Cn1c-2c(C2CCCCC2)c2ccc(C(=O)NS(=O)(=O)N(C)C)cc21` (stereo not shown), the IC50 in test [1] was 20 to 1000 nM. Moreover, in test [2], the EC50 was in the range of 20 to 1000 nM.

In test [1], `CNC12CC1c1cc(OC)ccc1-c1c(C3CCCCC3)c3ccc(C(=O)NS(=O)(=O)N(C)C)cc3n1C2` (stereo not shown) returned an IC50 of 20 to 1000 nM.

In turn, `COc1ccc2c(c1)C1CC1(NC(=O)N1C[C@@H](C)N(C)[C@@H](C)C1)Cn1c-2c(C2CCCCC2)c2ccc(C(=O)NS(=O)(=O)N(C)C)cc21` (stereo partly shown) yielded an IC50 in test [1] of 20 to 1000 nM. In test [2], this molecule showed an EC50 of 20 to 1000 nM.
